Among the test systems are A549; BT-549; HCT-116; HCT-15; HL-60; HOP-62; HT-29; LOX IMVI; PC-3; SF-268; SK-MEL-28; SK-MEL-2; SK-MEL-5; SNB-19; SW-620; U-251; HOP-92; NCI-H226; SN12C; SNB-75.
Common to all, as to assay: DTP human tumour cell line panel, 48 h

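Method: 48-hour compound exposure of cells in 96-well plates, five concentrations, linear interpolation of endpoints. GI50: concentration for 50% inhibition of growth.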 Active and inactive are the calls of the source. No stated cut-off is given here; in the data, active = GI50 up to about 1.1 µM and inactive = higher. Where a SMILES comes first, the peptide text is derived from it. Bridges are numbered along the chain shown (N, C = ends). The star is where a group is joined. Cbz = O=C(OCc1ccccc1)* Where only a bound is given, the exact number is not on record here.

The text below walks through data of ChEMBL document CHEMBL1201862, “PubChem BioAssay data set” (2004).

For the compound `S=C(Nc1ccccc1)c1ccc(CN2CCCCC2)s1`, the GI50 – broadly, the concentration at which growth is held to half of that of the control – was 29.6 µM (inactive) with A549; 21.4 µM (inactive) in the assay with BT-549; 17.5 µM (inactive) with HCT-116; 18.3 µM in the assay on HCT-15; 14.9 µM (inactive) in the assay on HL-60; 26.5 µM (inactive) in the assay with HOP-62. Also, the GI50 in the assay with HT-29 was 11.3 µM (inactive); with LOX IMVI, 17.7 µM (inactive); with PC-3, 29.7 µM (inactive); with SF-268, 26.4 µM (inactive); in the assay with SK-MEL-28, 16.2 µM (inactive); with SK-MEL-2, 20.5 µM (inactive). Also, the GI50 in the assay with SK-MEL-5 was 16.3 µM (inactive); with SNB-19 it was 20.2 µM (inactive); in the assay with SW-620 it was 16.4 µM (inactive); in the assay with U-251, 19 µM (inactive).

For `COc1ccc(/N=C2/C(=N/c3ccc(OC)cc3)N(c3ccccc3)C(=S)N2N=C=C2Sc3ccccc3N2C)cc1`, the GI50 in the assay with A549 is > 100 µM (inactive); with BT-549 it was > 100 µM (inactive); in the assay with HCT-116, 88.1 µM (inactive); in the assay with HCT-15, over 100 µM; with HOP-62 it was 52.5 µM (inactive); with HOP-92, 47.3 µM (inactive). The GI50 in the assay on HT-29, in the assay with NCI-H226, with PC-3, with SF-268, in the assay with SK-MEL-28 and in the assay on SK-MEL-2 was > 100 µM (inactive) throughout. In addition, the GI50 with SK-MEL-5 is > 100 µM (inactive); with SN12C, > 100 µM (inactive); in the assay on SNB-19 it was > 100 µM (inactive); in the assay on SW-620 it was > 100 µM (inactive); with U-251, 88.7 µM (inactive).

Take `[O-][S+](Nc1ccccc1)c1ccc(Cl)cc1` (stereo unspecified): the GI50 is 48.4 µM (inactive) in the assay with A549; 32.6 µM (inactive) in the assay with BT-549; 61.5 µM (inactive) with HCT-116; 75.2 µM in the assay on HCT-15; > 100 µM (inactive) in the assay with HL-60; > 100 µM (inactive) with HOP-62. In addition, the GI50 is > 100 µM (inactive) with HT-29; > 100 µM (inactive) in the assay with LOX IMVI; > 100 µM (inactive) in the assay on NCI-H226; 16.2 µM (inactive) with SF-268; > 100 µM (inactive) in the assay on SK-MEL-28; > 100 µM (inactive) in the assay with SK-MEL-2. Further, the GI50 is 35.9 µM (inactive) in the assay on SK-MEL-5; > 100 µM (inactive) in the assay with SN12C; > 100 µM (inactive) in the assay with SNB-19; > 100 µM (inactive) in the assay with SW-620; 23.6 µM (inactive) in the assay on U-251.

In the case of `COC(=O)C1CCCCNC(=O)CCC(NC(=O)OCc2ccccc2)C(=O)N1` (stereo not drawn) (Cbz-Glu-Lys-OMe; lactam 1-2; configuration not given here), the GI50 in the assay on A549 is > 100 µM (inactive); with HCT-116, > 100 µM (inactive); with HCT-15, over 100 µM; in the assay with HL-60 it was > 100 µM (inactive); with HOP-62 it was 38.7 µM (inactive); in the assay with HOP-92 it was 43.6 µM (inactive). Also, the GI50 in the assay on HT-29 was > 100 µM (inactive); in the assay on LOX IMVI it was > 100 µM (inactive); in the assay with NCI-H226 it was > 100 µM (inactive); in the assay on PC-3, > 100 µM (inactive); in the assay with SF-268, 56.1 µM (inactive); with SK-MEL-28 it was > 100 µM (inactive). Moreover, the GI50 with SK-MEL-2 was > 100 µM (inactive); in the assay with SK-MEL-5 it was > 100 µM (inactive); in the assay with SN12C, > 100 µM (inactive); in the assay with SNB-19, 66.7 µM (inactive); in the assay with SNB-75, > 100 µM (inactive); with SW-620, > 100 µM (inactive). For the same compound, the GI50 with U-251 is 39.3 µM (inactive).

Turning to `CO[C@@]12C[C@@H](CNC(=O)c3cc(Br)c[nH]3)O[C@@H]1NC(=O)N2`, the GI50 in the assay on A549 was > 100 µM (inactive); in the assay with BT-549, > 100 µM (inactive); in the assay with HCT-116, > 100 µM (inactive); in the assay on HCT-15 it was over 100 µM; in the assay on HOP-62, > 100 µM (inactive); in the assay with HT-29, > 100 µM (inactive). Also, the GI50 with LOX IMVI, in the assay on NCI-H226, with PC-3, in the assay with SF-268, with SK-MEL-28 and with SK-MEL-2 was > 100 µM (inactive) throughout. Moreover, the GI50 in the assay with SK-MEL-5, in the assay with SN12C, in the assay with SNB-19, in the assay with SNB-75, with SW-620 and in the assay with U-251 was > 100 µM (inactive) throughout.

On to `Cc1cc(C)c(C2CC(O)C(CO)O2)cc1C` (stereo unspecified), for which the GI50 with A549 was > 100 µM (inactive); in the assay with BT-549, > 100 µM (inactive); in the assay with HCT-116, > 100 µM (inactive); in the assay with HCT-15, over 100 µM; in the assay on HOP-62, > 100 µM (inactive); in the assay with HT-29 it was > 100 µM (inactive). The GI50 with LOX IMVI, with NCI-H226, with PC-3, with SF-268, in the assay on SK-MEL-28 and in the assay on SK-MEL-2 was > 100 µM (inactive) in each case. Besides, the GI50 in the assay with SK-MEL-5, in the assay with SN12C, in the assay on SNB-19, in the assay on SNB-75, in the assay on SW-620 and in the assay with U-251 was > 100 µM (inactive) in each case.

Regarding `COc1cc2c(cc1O)C(=O)O[C@@H]1CC=C3CCN(C)[C@H]3[C@H]21`, the GI50 in the assay with A549 is > 25 µM (inactive); in the assay on BT-549, > 25 µM (inactive); in the assay on HCT-116, > 25 µM (inactive); in the assay on HCT-15, over 25 µM; in the assay with HOP-62 it was > 25 µM (inactive); with HT-29, > 25 µM (inactive). Further, the GI50 with NCI-H226, in the assay with PC-3, with SF-268, in the assay on SK-MEL-28, in the assay with SK-MEL-2 and in the assay on SK-MEL-5 was > 25 µM (inactive) each time. Also, the GI50 in the assay with SN12C, in the assay with SNB-19, with SNB-75, in the assay on SW-620 and in the assay with U-251 was > 25 µM (inactive) in each case.

On to `CCC(=O)C(CCN1CCC(N2C(=O)C(CCC#N)c3ccccc32)CC1)(c1ccccc1)c1ccccc1` (stereo unspecified), for which the GI50 with A549 is 14 µM (inactive); in the assay on BT-549 it was 13.3 µM (inactive); with HCT-116 it was 4.9 µM (inactive); in the assay on HCT-15 it was 13.1 µM; in the assay on HL-60 it was 4.67 µM (inactive); in the assay on HOP-62 it was 17.9 µM (inactive). In addition, the GI50 is 3.4 µM (inactive) with HT-29; 12.8 µM (inactive) in the assay on LOX IMVI; 17.3 µM (inactive) with NCI-H226; 18.5 µM (inactive) in the assay on PC-3; 16.1 µM (inactive) in the assay with SF-268; 18.7 µM (inactive) in the assay on SK-MEL-28. Moreover, the GI50 with SK-MEL-2 is 13.9 µM (inactive); in the assay on SK-MEL-5, 10.3 µM (inactive); in the assay on SN12C, 18 µM (inactive); in the assay with SNB-19, 17.2 µM (inactive); with SNB-75 it was 12.9 µM (inactive); in the assay on SW-620, 11.8 µM (inactive). Further, the GI50 in the assay with U-251 is 14.6 µM (inactive).
